Assay results as given in patent publication US20120129872A1, “FUSED HETEROARYL INHIBITORS OF PRO-MATRIX METALLOPROTEINASE ACTIVATION” (priority 2010, published 2012).

Experiments:
MMP9 [1] = target: T1, MMP9 (Homo sapiens, UniProt P14780); test: Activation of proMMP9 by human fetal lung fibroblast (HFL-1) cultures (Western blot); assay type: cell-based; conditions: 3.3 μM, HFL-1, mAb-L51/82
T1 construct: host or cells: HFL-1 human fetal lung fibroblasts
Method: Activation of proMMP9 by human fetal lung fibroblast cultures Compound-α was assessed additionally for ability to block the maturation of proMMP9 to active MMP9 in cultures of human fetal lung fibroblasts (HFL-1, American Type Culture Collection #CCL-153). Unlike rat synoviocytes, HFL-1 cells were unable to process proMMP9 to the active form without addition of neutrophil elastase. […] Rather, the function of elastase in this assay may be to inactivate tissue inhibitors of matrix metalloproteinases (TIMPs) that repress endogenous pathways of MMP9 activation (Am J Respir Crit. Care Med; 1999; 159:1138-46).
HLF-1 were maintained in monolayer culture in DMEM with 10% FCS and were used between passage numbers 5-15. HLF-1 were embedded in collagen gels as described for rat SCW synoviocytes (vida supra). Half mL gels containing 0.4 million cells were dislodged into wells of 12 well Costar plates containing 1 mL/well of DMEM adjusted to contain 0.05% BSA and 100 ng/mL human TNFα (R&D Systems Cat #210-TA/CF). After overnight culture (37° C. and 5% CO2) wells were adjusted to contain an additional 0.5 mL of DMEM containing 0.05% BSA and with or without 13.2 μM Compound-α (final concentration was 3.3 μM Compound-α). Next, cultures were adjusted to contain 30 nM human elastase (Innovative Research). The plates were cultured an additional 72 hrs, at which time MMP9 secreted into the conditioned media was bound to gelatin-sepharose and evaluated by Western blot analysis as described for the rat synoviocyte cultures (vida supra). mAb-51/82 detected three forms of MMP9 in HFL-1 cultures.
These included a form of approximately 100 kD with mobility similar to recombinant rat proMMP9, an approximately 80 kD form with mobility similar to rat active MMP9, and an approximately 86 kD intermediate form. In the absence of Compound-α, most of the MMP9 was present as the 80 kD form. In the presence of Compound-α, the 80 kD form was a minor fraction of the total signal while nearly half of the signal were contributed each by the 100 kD and 86 kD forms. […]
A second experiment was performed to determine if the 80 kD form was mature active MMP9 and to determine the potency of Compound-α as an inhibitor of MMP9 maturation in this assay. HFL-1 cells embedded in collagen gels were cultured as described above in the presence of TNFα overnight and the cultures were then adjusted to contain 30 nM elastase and graded concentrations of Compound-α for an additional 72 hrs at which time MMP9 secreted into the conditioned media was bound to gelatin-sepharose and evaluated by Western blot analysis for active MMP9 using pAb-1246 raised against the N-terminal neoepitope of active MMP9 (Table 5). In the absence of Compound-α, pAb-1246 readily detected MMP9 with an electrophoretic mobility of approximately 80 kD. […]

MMP9 [2] = target: T2, MMP9 (Rattus norvegicus, UniProt P50282); test: Pro and active MMP9 in ankles of rats with SCW-induced arthritis (Western blot); assay type: in vivo
T2 construct: endogenous in cells; host or cells: primary synoviocytes from arthritic female Lewis rats
T2 sequence (P50282 108-708): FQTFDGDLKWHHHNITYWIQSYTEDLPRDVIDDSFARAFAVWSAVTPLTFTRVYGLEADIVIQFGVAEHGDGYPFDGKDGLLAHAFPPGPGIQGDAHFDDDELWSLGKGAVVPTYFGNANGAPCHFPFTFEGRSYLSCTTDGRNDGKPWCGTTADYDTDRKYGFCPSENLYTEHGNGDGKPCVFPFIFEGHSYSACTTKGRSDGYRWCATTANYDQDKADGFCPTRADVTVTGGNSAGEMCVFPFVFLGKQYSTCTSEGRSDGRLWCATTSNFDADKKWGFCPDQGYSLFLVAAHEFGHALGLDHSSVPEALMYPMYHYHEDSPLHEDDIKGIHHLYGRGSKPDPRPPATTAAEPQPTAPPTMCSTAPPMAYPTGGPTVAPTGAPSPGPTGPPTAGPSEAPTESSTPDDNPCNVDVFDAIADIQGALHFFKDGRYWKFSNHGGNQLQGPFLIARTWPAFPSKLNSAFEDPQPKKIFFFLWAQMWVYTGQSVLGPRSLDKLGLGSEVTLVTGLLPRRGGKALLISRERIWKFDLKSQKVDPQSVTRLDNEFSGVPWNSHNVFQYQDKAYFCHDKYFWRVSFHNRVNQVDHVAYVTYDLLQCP
Method: Hind-limbs were skinned, severed just above the tibia-tarsus joint and below the metatarsals, and the tibia-tarsus joints (ankles) were weighed, snap frozen and pulverized on dry ice using a hammer and anvil. The pulverized tissue was suspended in 3 volumes (w:v) of ice-cold homogenization buffer containing 50 mM Tris pH 7.5, 150 mM NaCl, 5 mM EDTA, 1% Triton X100, 0.05% Brij 30, 10% dimethylsulfoxide and Complete EDTA-free Protease Inhibitor Cocktail (Roche Diagnostics). The suspended tissue was homogenized sequentially with a Kinematica AG Polytron and a Dounce homogenizer. Homogenates were centrifuged at 16,000×g for 10 min at 4° C. and the soluble fractions were saved. Dimethylsulfoxide was removed from a portion of each soluble fraction using PD MiniTrap™ G-25 desalting columns (GE Healthcare). Homogenates (0.25 mL), free of DMSO, were diluted with an equal volume of binding buffer (i.e., homogenization buffer without dimethylsufoxide) and adjusted to contain 50 μL of a 50% slurry of gelatin-conjugated sepharose. Following 2 hours of rotation at 4° C. the beads were washed twice in binding buffer and eluted in 100 μL 2×-reducing Laemmli buffer with heating to 95° C. for 5 minutes. […]

T1 sequence (P14780 94-707): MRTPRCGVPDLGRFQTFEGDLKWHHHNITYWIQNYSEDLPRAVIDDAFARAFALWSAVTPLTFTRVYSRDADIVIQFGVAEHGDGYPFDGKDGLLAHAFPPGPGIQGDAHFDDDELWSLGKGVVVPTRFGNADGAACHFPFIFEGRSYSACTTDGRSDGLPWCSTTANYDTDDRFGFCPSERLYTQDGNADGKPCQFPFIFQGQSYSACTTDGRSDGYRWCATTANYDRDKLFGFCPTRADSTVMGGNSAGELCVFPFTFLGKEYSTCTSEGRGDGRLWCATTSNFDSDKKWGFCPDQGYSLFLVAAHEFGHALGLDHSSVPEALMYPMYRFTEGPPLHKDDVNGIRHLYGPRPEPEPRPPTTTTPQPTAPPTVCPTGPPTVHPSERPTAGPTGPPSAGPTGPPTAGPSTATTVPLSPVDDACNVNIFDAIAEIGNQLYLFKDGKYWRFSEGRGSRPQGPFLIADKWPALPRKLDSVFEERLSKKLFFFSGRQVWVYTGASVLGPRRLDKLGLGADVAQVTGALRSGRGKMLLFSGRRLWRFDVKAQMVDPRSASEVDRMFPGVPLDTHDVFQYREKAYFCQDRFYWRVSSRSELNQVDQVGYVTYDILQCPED

Compound: Cc1nc(C)c(-c2csc(Nc3cc(S(N)(=O)=O)ccc3OC(C)C)n2)s1 [Compound-α, 3-(2′,4′-Dimethyl-[4,5′]bithiazolyl-2-ylamino)-4-isopropoxy-benzenesulfonamide•HBr]
- Percent of total signal, 80 kD (MMP9 [1]): 7%
- Percent of total signal, 86 kD (MMP9 [1]): 47%
- Percent of total signal, 100 kD (MMP9 [1]): 46%
- Signal, Total (MMP9 [1]): 91346 INT * mm^2
- Abundance of proMMP9 in ankles (MMP9 [2]; Day 26, FIG. 3A lanes 4-9): did not reduce the abundance of proMMP9
- Abundance of proMMP9 in ankles (MMP9 [2]; Day 26, FIG. 3A lanes 4-9, listed as Compound a): did not reduce the abundance of proMMP-9
